Reference: PubChem BioAssay AID1963437 (Molecular Pharmacology Branch, DTP, NCI, 2024)

Test system: OVCAR-8 complex spheroid, growth inhibition
Experiment: Anticancer human tumor OVCAR-8 cell line growth inhibition [Asc];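 also: spheroids exposed to agents for 7 days before readout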;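 as to viability, T/C: percent viability relative to DMSO vehicle wells taken as 100%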
Settings: for IC50: curve of first compound; for viability, T/C: stronger effect = lower value; active = viability on the fitted dose curve at most 10% of control; inactive = the rest
How it was run: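 Complex spheroids combining tumor cells with HUVEC endothelial cells and human MSCs, at 37 degrees C, 5% CO2; agents tested alone or combined, half-log dilutions from at or near clinical Cmax, or 10 microM if Cmax unknown.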

O=C(c1ccc(F)c(F)c1Nc1ccc(I)cc1F)N1CC(O)([C@@H]2CCCCN2)C1 + CNC(C)C(=O)NC1CN(S(=O)(=O)c2cccc(S(=O)(=O)N3CCC4CCC(C(=O)NC(c5ccccc5)c5ccccc5)N4C(=O)C(NC(=O)C(C)NC)C3)c2)CCC2CCC(C(=O)NC(c3ccccc3)c3ccccc3)N2C1=O
active: viability, T/C (second compound 0.1 µM, first compound 1 µM) 5.38% | viability, T/C (second compound 0.316 µM, first compound 1 µM) 2.09% | viability, T/C (second compound 1 µM, first compound 1 µM) 1.27%
508 nM: IC50 (second compound 1 µM)
> 1000 nM: IC50 (second compound 0.00316 µM) | IC50 (second compound 0.01 µM)
641 nM: IC50 (second compound 0.1 µM)
548 nM: IC50 (second compound 0.316 µM)
inactive: viability, T/C (second compound 0.00316 µM, first compound 0.00316 µM) 113% | viability, T/C (second compound 0.00316 µM, first compound 0.01 µM) 97% | viability, T/C (second compound 0.00316 µM, first compound 0.0316 µM) 153% | viability, T/C (second compound 0.00316 µM, first compound 0.1 µM) 166% | viability, T/C (second compound 0.00316 µM, first compound 0.316 µM) 232% | viability, T/C (second compound 0.00316 µM, first compound 1 µM) 84.5% | viability, T/C (second compound 0.01 µM, first compound 0.00316 µM) 97.3% | viability, T/C (second compound 0.01 µM, first compound 0.01 µM) 101% | viability, T/C (second compound 0.01 µM, first compound 0.0316 µM) 146% | viability, T/C (second compound 0.01 µM, first compound 0.1 µM) 185% | viability, T/C (second compound 0.01 µM, first compound 0.316 µM) 223% | viability, T/C (second compound 0.01 µM, first compound 1 µM) 98.7% | viability, T/C (second compound 0.0316 µM, first compound 0.00316 µM) 95.2% | viability, T/C (second compound 0.0316 µM, first compound 0.01 µM) 99.8% | viability, T/C (second compound 0.0316 µM, first compound 0.0316 µM) 116% | viability, T/C (second compound 0.0316 µM, first compound 0.1 µM) 163% | viability, T/C (second compound 0.0316 µM, first compound 0.316 µM) 216% | viability, T/C (second compound 0.0316 µM, first compound 1 µM) 47.5% | viability, T/C (second compound 0.1 µM, first compound 0.00316 µM) 82.3% | viability, T/C (second compound 0.1 µM, first compound 0.01 µM) 82.2% | viability, T/C (second compound 0.1 µM, first compound 0.0316 µM) 118% | viability, T/C (second compound 0.1 µM, first compound 0.1 µM) 168% | viability, T/C (second compound 0.1 µM, first compound 0.316 µM) 153% | viability, T/C (second compound 0.316 µM, first compound 0.00316 µM) 70.8% | viability, T/C (second compound 0.316 µM, first compound 0.01 µM) 80.3% | viability, T/C (second compound 0.316 µM, first compound 0.0316 µM) 90.4% | viability, T/C (second compound 0.316 µM, first compound 0.1 µM) 120% | viability, T/C (second compound 0.316 µM, first compound 0.316 µM) 108% | viability, T/C (second compound 1 µM, first compound 0.00316 µM) 76.4% | viability, T/C (second compound 1 µM, first compound 0.01 µM) 94.9% | viability, T/C (second compound 1 µM, first compound 0.0316 µM) 101% | viability, T/C (second compound 1 µM, first compound 0.1 µM) 106% | viability, T/C (second compound 1 µM, first compound 0.316 µM) 83.9%
969 nM: IC50 (second compound 0.0316 µM)
